Earlier results, collected in patent US20030171260A1, “Compositions and methods utilizing hydroxamates to scavenge oxidant toxins” (priority 2002, published 2003).
Structures can show the parent of a compound that is named as a salt.

| Structure (SMILES) | time to leave the vascular space after administration [min] | oral LD50 dose (rat; in vivo, po) | intraperitoneal LD50 dose (rat; intraperitoneal) [mg/kg] | subcutaneous LD50 dose (rat; subcutaneous) |
| --- | --- | --- | --- | --- |
| CC(=O)N(O)CCCCCNC(=O)CCC(=O)N(O)CCCCCNC(=O)CCC(=O)N(O)CCCCCN [desferoxamine mesylate] | ≤ 60 |  |  |  |
| CCCCOc1ccc(CC(=O)NO)cc1 [bufexamac] |  | 3,370 mg/kg | 805 | > 5,000 mg/kg |
